According to ChEMBL document CHEMBL1130671, “beta Gal(1-->S-4)beta GlcNac--OR: a galactosidase-stable substrate for alpha(1-->3)fucosyltransferase” (Bioorg Med Chem Lett, 1998):
Active and inactive are the calls of the source. The rule behind the calls is not given here.

Columns and labels:
Homo sapiens [1] = species on record: Homo sapiens; experiment: Kinetic constant for purified human milk alpha(1,3/4) fucosyltransferase
Homo sapiens [2] = species on record: Homo sapiens; experiment: Potency against purified human milk alpha(1,3/4) fucosyltransferase; IA inactive

Km (Homo sapiens [1])	Potency (Homo sapiens [2])	Compound
230 µM	–	COC(=O)CCCCCCCCOC1OC(CO)C(SC2OC(CO)C(O)C(O)C2O)C(O)C1NC(C)=O (configuration not stated)
–	inactive	COC(=O)CCCCCCCCOC1OC(CO)C(OC2SC(CO)C(O)C(O)C2O)C(O)C1NC(C)=O (configuration not stated)
